Test system: ovulation
Assay: inhibition of ovulation in female rats (M. Marko and E. Fluckiger)
Format: in vivo
Details: s.c.
Protocol: The LHRH antagonists of the invention, in particular the compounds of formula XI inhibit luteinizing hormone secretion, e.g. as indicated by an inhibition of ovulation in animals. This test is effected according to M. Marko and E. Fluckiger, Experientia 30, […] (1974).
Adult female rats of the Ivanovas Wistar strain (Sprague Dawley, Iva: SDIV, 200-250 g) are kept under standard conditions: 14 h light (from 0.400 to 18.00 hours); 24° C.; 55-60% rel. humidity; food and water ad libitum. Animals with regular 4-day cycles are injected on proestrus day at 13.00 h with the compound to be tested, subcutaneously or by the oral route. The next day at 9:00 a.m. the rats are sacrified and ova counted on both Fallopian tubes with the aid of a dissecting microscope. Only when no eggs are found is ovulation considered to be inhibited. The mean number of eggs per ovulating rat in each treatment groups is also determined.

[N-Ac-DPhe(Cl)^1,2, DTrp^3,DAla^10 ]-LHRH
ED50 inhibition of ovulation: 0.08 mg/kg

From patent US5541159A, “Calcitonin derivatives” (Sandoz Ltd., priority 1988, dated 1996)
